From PubChem BioAssay AID292 (DTP/NCI, 2004)
Values joined by “and” are separate entries in the source; they are usually repeats but may differ in a detail not shown here. Identical values can stand only once. Toxic doses and inconclusive results are not listed. The calls were made as follows: active = survival T/C of 150% or more; inactive = T/C below 125% in these data.

System: B6C3F1 mice, ip Sarcoma M5076, median survival T/C
Assay: NCI In Vivo Anticancer Drug Screen. Data for tumor model Sarcoma M5076 (intraperitoneal) in B6C3F1 mice
Settings: endpoint: median survival time, higher = longer survival
Outline: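 Survival measured in treated (T) and vehicle control (C) mice with transplantable tumour; result given as T divided by C.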

[1] = dose: 6.25 mg/kg/injection, schedule: Q04DX004 (ip), vehicle: Klucel (hydroxypropylcellulose) (HPC)
[2] = dose: 25.0 mg/kg/injection, schedule: Q04DX004 (ip), vehicle: suspension in saline
[3] = dose: 50.0 mg/kg/injection, schedule: Q04DX004 (ip), vehicle: suspension in saline
[4] = dose: 50.0 mg/kg/injection, schedule: Q04DX004 (ip), vehicle: Klucel (hydroxypropylcellulose) (HPC)
[5] = dose: 50.0 mg/kg/injection, schedule: Q04DX004 (ip), vehicle: saline with Tween-80
[6] = dose: 100.0 mg/kg/injection, schedule: Q04DX004 (ip), vehicle: saline with Tween-80
[7] = dose: 200.0 mg/kg/injection, schedule: Q04DX004 (ip), vehicle: saline with Tween-80

Measured: T/C

CN=C(NC)c1ccc(NC(=O)/C=C\c2ccc(/C=C/C(=O)Nc3ccc(C(=NC)NC)cc3)cc2)cc1
inactive: dose: 3.12 mg/kg/injection, schedule: Q04DX004 (ip), vehicle: Klucel (hydroxypropylcellulose) (HPC) 124 % of control | dose: 3.75 mg/kg/injection, schedule: Q04DX004 (ip), vehicle: Klucel (hydroxypropylcellulose) (HPC) 116 % of control | [1] 115 % of control | dose: 17.37 mg/kg/injection, schedule: Q04DX004 (ip), vehicle: Klucel (hydroxypropylcellulose) (HPC) 105 % of control
active: dose: 10.42 mg/kg/injection, schedule: Q04DX004 (ip), vehicle: Klucel (hydroxypropylcellulose) (HPC) 164 % of control

c1nnc(NCNc2nncs2)s1
active: dose: 144.0 mg/kg/injection, schedule: Q04DX004 (ip), vehicle: suspension in saline 154 % of control | dose: 240.0 mg/kg/injection, schedule: Q04DX004 (ip), vehicle: suspension in saline 164 % of control | dose: 400.0 mg/kg/injection, schedule: Q04DX004 (ip), vehicle: suspension in saline 168 % of control and 177 % of control
inactive: [2] 113 % of control | [3] 122 % of control | dose: 200.0 mg/kg/injection, schedule: Q04DX004 (ip), vehicle: suspension in saline 123 % of control

CCn1c2ccccc2c2cc(N=Nc3cc4ccccc4cc3O)ccc21
inactive: dose: 43.75 mg/kg/injection, schedule: Q04DX004 (ip), vehicle: Klucel (hydroxypropylcellulose) (HPC) 89 % of control

N=C(N)c1nn(C2OC(CO)C(O)C2O)c2nc[nH]c(=O)c12 (stereo not given)
inactive: dose: 6.25 mg/kg/injection, schedule: Q04DX004 (ip), vehicle: Klucel + Tween-80 123 % of control | dose: 12.5 mg/kg/injection, schedule: Q04DX004 (ip), vehicle: Klucel + Tween-80 109 % of control | dose: 18.0 mg/kg/injection, schedule: Q04DX004 (ip), vehicle: other 106 % of control | dose: 22.0 mg/kg/injection, schedule: Q04DX004 (ip), vehicle: Klucel + Tween-80 112 % of control | dose: 30.0 mg/kg/injection, schedule: Q04DX004 (ip), vehicle: other 107 % of control | dose: 36.0 mg/kg/injection, schedule: Q04DX004 (ip), vehicle: Klucel + Tween-80 120 % of control | dose: 50.0 mg/kg/injection, schedule: Q04DX004 (ip), vehicle: other 105 % of control | dose: 60.0 mg/kg/injection, schedule: Q04DX004 (ip), vehicle: Klucel + Tween-80 117 % of control | dose: 83.33 mg/kg/injection, schedule: Q04DX004 (ip), vehicle: other 105 % of control | dose: 101.0 mg/kg/injection, schedule: Q04DX004 (ip), vehicle: Klucel + Tween-80 117 % of control

c1ccc2c(c1)oc1cc3c(cc12)nnc1cccn13
inactive: dose: 22.5 mg/kg/injection, schedule: Q04DX004 (ip), vehicle: Klucel (hydroxypropylcellulose) (HPC) 92 % of control | dose: 45.0 mg/kg/injection, schedule: Q04DX004 (ip), vehicle: Klucel (hydroxypropylcellulose) (HPC) 96 % of control | dose: 90.0 mg/kg/injection, schedule: Q04DX004 (ip), vehicle: Klucel (hydroxypropylcellulose) (HPC) 94 % of control | dose: 180.0 mg/kg/injection, schedule: Q04DX004 (ip), vehicle: Klucel (hydroxypropylcellulose) (HPC) 88 % of control | dose: 360.0 mg/kg/injection, schedule: Q04DX004 (ip), vehicle: Klucel (hydroxypropylcellulose) (HPC) 92 % of control

COc1ccc(-c2nnc3cc(C)n4nnnc4n23)cc1OC
inactive: dose: 18.75 mg/kg/injection, schedule: Q04DX004 (ip), vehicle: Klucel (hydroxypropylcellulose) (HPC) 99 % of control | dose: 37.5 mg/kg/injection, schedule: Q04DX004 (ip), vehicle: Klucel (hydroxypropylcellulose) (HPC) 94 % of control | dose: 75.0 mg/kg/injection, schedule: Q04DX004 (ip), vehicle: Klucel (hydroxypropylcellulose) (HPC) 98 % of control | dose: 150.0 mg/kg/injection, schedule: Q04DX004 (ip), vehicle: Klucel (hydroxypropylcellulose) (HPC) 99 % of control | dose: 300.0 mg/kg/injection, schedule: Q04DX004 (ip), vehicle: Klucel (hydroxypropylcellulose) (HPC) 91 % of control

CCOc1ccc(C(C)c2cc3c(cc2OC)OCO3)cc1 (stereo not given)
inactive: dose: 62.5 mg/kg/injection, schedule: Q04DX004 (ip), vehicle: distilled water + Tween-80 99 % of control and 102 % of control | dose: 125.0 mg/kg/injection, schedule: Q04DX004 (ip), vehicle: distilled water + Tween-80 102 % of control and 124 % of control | dose: 250.0 mg/kg/injection, schedule: Q04DX004 (ip), vehicle: distilled water + Tween-80 117 % of control

O=S1(=O)CS(=O)(=O)OCCO1
inactive: dose: 12.5 mg/kg/injection, schedule: Q01DX001 (oral), vehicle: Klucel (hydroxypropylcellulose) (HPC) 109 % of control
active: dose: 6.25 mg/kg/injection, schedule: Q01DX009 (oral), vehicle: Klucel (hydroxypropylcellulose) (HPC) 160 % of control | [1] 165 % of control | dose: 12.5 mg/kg/injection, schedule: Q01DX009 (oral), vehicle: Klucel (hydroxypropylcellulose) (HPC) 192 % of control | dose: 12.5 mg/kg/injection, schedule: Q04DX004 (ip), vehicle: Klucel (hydroxypropylcellulose) (HPC) 180 % of control | dose: 25.0 mg/kg/injection, schedule: Q01DX009 (oral), vehicle: Klucel (hydroxypropylcellulose) (HPC) 300 % of control | dose: 25.0 mg/kg/injection, schedule: Q04DX004 (ip), vehicle: Klucel (hydroxypropylcellulose) (HPC) 267 % of control and 290 % of control | dose: 50.0 mg/kg/injection, schedule: Q01DX009 (oral), vehicle: Klucel (hydroxypropylcellulose) (HPC) 300 % of control | [4] 267 % of control and 300 % of control | dose: 100.0 mg/kg/injection, schedule: Q01DX001 (oral), vehicle: Klucel (hydroxypropylcellulose) (HPC) 300 % of control

COC1=C(C)C(=O)C2=C(C1=O)C(CO)N1C(C#N)C3CC4C(C1C2N1CCOC41)N3C (stereo not given)
inactive: dose: 0.12 mg/kg/injection, schedule: Q04DX004 (ip), vehicle: acid diluted with saline 97 % of control | dose: 0.25 mg/kg/injection, schedule: Q04DX004 (ip), vehicle: acid diluted with saline 103 % of control | dose: 0.5 mg/kg/injection, schedule: Q04DX004 (ip), vehicle: acid diluted with saline 100 % of control | dose: 1.0 mg/kg/injection, schedule: Q04DX004 (ip), vehicle: acid diluted with saline 90 % of control and 93 % of control | dose: 2.0 mg/kg/injection, schedule: Q04DX004 (ip), vehicle: acid diluted with saline 98 % of control and 109 % of control

O=C(O)CC1C(=O)OC2C3COC(=O)c4cc(O)c(O)c(O)c4-c4c(cc(O)c(O)c4O)C(=O)OC2C(OC(=O)c2cc(O)c(O)c4c2C1C(O)C(=O)O4)C(OC(=O)c1cc(O)c(O)c(O)c1)O3 (stereo not given)
inactive: dose: 6.25 mg/kg/injection, schedule: Q04DX004 (ip), vehicle: saline 89 % of control | dose: 12.5 mg/kg/injection, schedule: Q04DX004 (ip), vehicle: saline 96 % of control | dose: 25.0 mg/kg/injection, schedule: Q04DX004 (ip), vehicle: saline 97 % of control | [2] 96 % of control | dose: 50.0 mg/kg/injection, schedule: Q04DX004 (ip), vehicle: saline 104 % of control | [3] 97 % of control | dose: 100.0 mg/kg/injection, schedule: Q04DX004 (ip), vehicle: saline 96 % of control | dose: 100.0 mg/kg/injection, schedule: Q04DX004 (ip), vehicle: suspension in saline 100 % of control

O=C1N[C@@H]([C@H]2CC[C@H](Cl)CN2)C(=O)N[C@H]1[C@H]1CC[C@H](Cl)CN1
inactive: dose: 0.5 mg/kg/injection, schedule: Q04DX005 (ip), vehicle: saline 115 % of control
active: dose: 2.0 mg/kg/injection, schedule: Q04DX005 (ip), vehicle: saline 185 % of control | dose: 4.0 mg/kg/injection, schedule: Q04DX005 (ip), vehicle: saline 319 % of control | dose: 8.0 mg/kg/injection, schedule: Q04DX005 (ip), vehicle: saline 319 % of control

C[C@]12C=CC(=O)C=C1CC[C@@H]1[C@@H]2C(=O)C[C@@]2(C)[C@H]1CC[C@]2(O)C(=O)CO
inactive: [4] 105 % of control and 123 % of control | dose: 100.0 mg/kg/injection, schedule: Q04DX004 (ip), vehicle: Klucel (hydroxypropylcellulose) (HPC) 118 % of control | dose: 200.0 mg/kg/injection, schedule: Q04DX004 (ip), vehicle: Klucel (hydroxypropylcellulose) (HPC) 116 % of control | dose: 400.0 mg/kg/injection, schedule: Q04DX004 (ip), vehicle: Klucel (hydroxypropylcellulose) (HPC) 94 % of control

BrC[P+](CBr)(CBr)CBr
active: dose: 125.0 mg/kg/injection, schedule: Q04DX004 (ip), vehicle: saline with Tween-80 186 % of control
inactive: dose: 15.63 mg/kg/injection, schedule: Q04DX004 (ip), vehicle: saline with Tween-80 107 % of control and 115 % of control

c1ccc(OCC2CO2)c(OCC2CO2)c1 (stereo not given)
inactive: [5] 111 % of control and 121 % of control | [6] 118 % of control and 123 % of control
active: [7] 156 % of control and 173 % of control

CN(C)c1cc2c(nn1)Nc1ccccc1S2
inactive: [5] 88 % of control | [6] 88 % of control | [7] 97 % of control | dose: 800.0 mg/kg/injection, schedule: Q04DX004 (ip), vehicle: saline with Tween-80 90 % of control
